Measurements from PMC12615753, “Glutathione as a taste modulator: molecular mechanisms of interaction with umami and sweet taste receptors” (Food Chemistry: Molecular Sciences, 2025).

Biological target: T1, hTAS1R1 Y220A/rTAS1R3 (UniProt Q7RTX1+Q923K1, Y220A)
T1 construct: UniProtKB number Q7RTX1–1); The cDNA coding region of rTAS1R3 was synthesized with optimized-codon usage for human expression; expressed in transfected cells; host or cells: HEK293T/17
T1 sequence (Q7RTX1 21-841 Y220A): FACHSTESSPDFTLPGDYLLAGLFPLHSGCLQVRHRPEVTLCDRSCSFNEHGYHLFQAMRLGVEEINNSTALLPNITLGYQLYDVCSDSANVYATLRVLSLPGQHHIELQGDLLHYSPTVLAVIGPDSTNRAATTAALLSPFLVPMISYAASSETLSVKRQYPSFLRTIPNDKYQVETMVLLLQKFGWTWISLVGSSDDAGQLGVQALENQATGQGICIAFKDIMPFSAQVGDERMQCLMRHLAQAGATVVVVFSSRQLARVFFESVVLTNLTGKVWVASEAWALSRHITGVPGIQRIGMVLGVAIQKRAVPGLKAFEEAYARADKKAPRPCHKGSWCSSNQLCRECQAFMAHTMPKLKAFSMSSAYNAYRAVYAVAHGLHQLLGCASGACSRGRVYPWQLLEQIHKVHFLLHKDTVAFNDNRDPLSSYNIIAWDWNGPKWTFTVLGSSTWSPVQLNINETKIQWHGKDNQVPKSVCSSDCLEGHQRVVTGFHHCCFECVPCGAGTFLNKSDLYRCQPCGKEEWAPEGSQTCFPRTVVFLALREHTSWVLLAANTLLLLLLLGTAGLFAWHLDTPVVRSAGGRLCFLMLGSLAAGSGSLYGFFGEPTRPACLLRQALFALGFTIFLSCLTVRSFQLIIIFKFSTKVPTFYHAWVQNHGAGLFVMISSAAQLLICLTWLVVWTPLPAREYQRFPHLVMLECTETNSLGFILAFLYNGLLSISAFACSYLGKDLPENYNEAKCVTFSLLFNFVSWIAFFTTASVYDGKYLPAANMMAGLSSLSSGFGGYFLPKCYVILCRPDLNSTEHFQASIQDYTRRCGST
T1 sequence (Q923K1 21-858): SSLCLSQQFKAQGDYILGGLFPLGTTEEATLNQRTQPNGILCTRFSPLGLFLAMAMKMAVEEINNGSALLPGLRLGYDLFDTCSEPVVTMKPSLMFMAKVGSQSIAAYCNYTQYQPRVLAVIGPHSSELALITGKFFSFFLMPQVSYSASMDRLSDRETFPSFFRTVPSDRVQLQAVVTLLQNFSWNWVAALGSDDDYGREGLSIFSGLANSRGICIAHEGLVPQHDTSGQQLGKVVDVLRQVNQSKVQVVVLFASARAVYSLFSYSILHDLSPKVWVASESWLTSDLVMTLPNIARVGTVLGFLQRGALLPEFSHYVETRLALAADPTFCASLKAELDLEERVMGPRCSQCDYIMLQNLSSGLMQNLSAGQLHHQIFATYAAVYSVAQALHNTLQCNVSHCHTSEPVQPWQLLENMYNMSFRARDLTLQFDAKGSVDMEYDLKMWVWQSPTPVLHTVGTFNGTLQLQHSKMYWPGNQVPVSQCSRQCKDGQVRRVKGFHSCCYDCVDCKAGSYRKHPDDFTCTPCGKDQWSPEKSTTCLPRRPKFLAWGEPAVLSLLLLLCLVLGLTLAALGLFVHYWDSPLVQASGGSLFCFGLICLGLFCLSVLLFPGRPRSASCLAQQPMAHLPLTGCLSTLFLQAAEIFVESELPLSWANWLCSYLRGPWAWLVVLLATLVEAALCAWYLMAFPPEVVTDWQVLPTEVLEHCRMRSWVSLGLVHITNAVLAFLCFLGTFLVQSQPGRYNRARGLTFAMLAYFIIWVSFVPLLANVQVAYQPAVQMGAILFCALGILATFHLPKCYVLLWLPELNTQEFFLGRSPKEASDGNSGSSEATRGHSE
Assay: Calcium assay, hTAS1R1 mutant co-expressed with rTAS1R3
Assay type: cell-based, human, rat
Settings: for response to the agonist alone, vs WT: Y220A
Description: Chimeric Gα proteins, such as Gα16Gust44, Gα16Gi3 or Gα15i2, are widely used in the functional expression of TAS1R receptors ([Backes et al., 2015]; [Suess et al., 2015]; [Toda et al., 2021], [Toda et al., 2013], [Toda et al., 2018]; [Zhang et al., 2008]). Chimeric Gα15i2 (([Toda et al., 2013]), Supplementary data) was generated by replacing the last five residues of the C-terminal tail of rat Gα15i2 (EINLL) (UniProt number G3V6N8; https://www.uniprot.org/uniprot/) with the counterpart sequence from human GNAI2 (DCGLF) (UniProt number P04899-1) and cloning into the pcDNA3.1/Hygro vector (Invitrogen, Thermo Fisher Scientific, Illkirch, France) between the HindIII and NotI restriction sites, resulting in the plasmid pcDNA3.1-Gα15i2. Chimeric Gα16Gust44 construct have already been reported ([Raliou et al., 2011]). Briefly, Gα16Gust44 was generated by replacing the C-terminal of Gα16 with the C-terminal 44 residues of gustducin. As previously described, hTAS1R1 was amplified from human fungiform papillae cDNA and cloned and inserted into pcDNA3 (Invitrogen), generating pcDNA3-TAS1R1-WT (wild-type) ([Raliou et al., 2011]). […] The cDNA coding region of rTAS1R3 was synthesized with optimized-codon usage for human expression (Genewiz) and was cloned and inserted into the mammalian pcDNA4/myc-HisA (Invitrogen) expression vector between the EcoRI and NotI restriction sites, resulting in the plasmid pcDNA4-rTAS1R3. […] The sequence integrity of all the plasmid constructs was verified via automated DNA sequencing (Genewiz).
The hTAS1R1 mutants were co-expressed with the rTAS1R3 subunit in HEK293 cells. […] As a control, the functionality of the mutated receptors was checked after stimulation with S807 (Fig. S8), which interacts with TAS1R1-TMD ([Zhang et al., 2008]).

SMILES	response to the agonist alone, vs WT	EC50 [mM]
N[C@@H](CCC(=O)O)C(=O)O [L-Glu, L-glutamic acid, reference compound]	completely suppressed	–
N[C@@H](CCC(=O)N[C@@H](CS)C(=O)NCC(=O)O)C(=O)O [GSH, γ-L-glutamyl-L-cysteinyl-glycine]	fully abolished	> 30
CCCC(CCC)NC(=O)c1ccc2c(c1)OCO2 [S807, N-(heptan-4-yl)benzo[d][1,3]dioxole-5-carboxamide, reference compound]	strongly affected	–
